Source: ChEMBL document CHEMBL6120940, “Discovery of N-Aryl-N'-[4-(aryloxy)cyclohexyl]squaramide-Based Inhibitors of LXR/SREBP-1c Signaling Pathway Ameliorating Steatotic Liver Disease: Navigating the Role of SIRT6 Activation” (J Med Chem, 2024)

Legend:
[1] = Downregulation of SREBP-1c mRNA expression in human HepG2 cells at 10 uM pretreated with compound for 30 mins followed by T0901317 addition and measured after 12 hrs by RT-qPCR analysis relative to control; format: functional; settings: time 12.5 hrs
[2] = biological target: T1, Sterol regulatory element-binding protein 1 (Homo sapiens) (UniProt P36956); assay: Inhibition of SREBP-1c transcriptional activity in human HepG2 cells expressing LXRalpha/RXRalpha assessed as reduction in SRE-luciferase level at 10 uM pretreated with compound for 30 mins followed by T0901317 addition and measured after 12 hrs by Dual-Glo luciferase assay relative to control; format: cell-based; settings: time 12.5 hrs
T1 sequence (whole entry): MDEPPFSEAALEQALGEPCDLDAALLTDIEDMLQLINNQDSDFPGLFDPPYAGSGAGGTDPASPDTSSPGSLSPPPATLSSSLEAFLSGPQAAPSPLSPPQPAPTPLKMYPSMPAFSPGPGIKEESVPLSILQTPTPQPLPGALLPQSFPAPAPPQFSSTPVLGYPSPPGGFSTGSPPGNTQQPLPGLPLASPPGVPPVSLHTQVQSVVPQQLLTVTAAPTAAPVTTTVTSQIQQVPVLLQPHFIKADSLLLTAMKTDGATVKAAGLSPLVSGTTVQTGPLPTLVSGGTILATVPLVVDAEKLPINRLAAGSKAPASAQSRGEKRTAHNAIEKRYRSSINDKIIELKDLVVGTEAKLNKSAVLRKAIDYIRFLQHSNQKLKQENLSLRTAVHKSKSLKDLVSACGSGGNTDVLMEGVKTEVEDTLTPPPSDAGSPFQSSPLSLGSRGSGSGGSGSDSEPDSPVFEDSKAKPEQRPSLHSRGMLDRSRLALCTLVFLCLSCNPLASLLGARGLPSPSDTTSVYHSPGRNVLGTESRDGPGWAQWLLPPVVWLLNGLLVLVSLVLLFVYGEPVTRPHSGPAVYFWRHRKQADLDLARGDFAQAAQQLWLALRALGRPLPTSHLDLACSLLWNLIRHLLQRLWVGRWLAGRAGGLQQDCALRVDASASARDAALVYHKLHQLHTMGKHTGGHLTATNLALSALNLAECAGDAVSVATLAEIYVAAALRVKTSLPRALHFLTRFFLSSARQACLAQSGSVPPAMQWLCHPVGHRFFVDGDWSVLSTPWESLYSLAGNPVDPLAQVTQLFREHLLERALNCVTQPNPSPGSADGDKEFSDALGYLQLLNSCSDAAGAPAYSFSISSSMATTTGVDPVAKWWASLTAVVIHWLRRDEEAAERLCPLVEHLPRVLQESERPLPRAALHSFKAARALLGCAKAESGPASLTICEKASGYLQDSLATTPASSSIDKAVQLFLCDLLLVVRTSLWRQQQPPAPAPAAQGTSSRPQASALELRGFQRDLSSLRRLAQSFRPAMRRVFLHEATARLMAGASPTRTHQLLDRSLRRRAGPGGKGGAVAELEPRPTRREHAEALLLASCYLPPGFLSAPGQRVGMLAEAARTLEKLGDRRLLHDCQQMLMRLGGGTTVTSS

HepG2 = assay: Cytotoxicity against human HepG2 cells at 10 uM measured after 24 hrs by CCK-8 method relative to control; format: functional

| inhibition [2] [%] | SMILES | Activity [1] [%] | Activity (HepG2) [%] |
| --- | --- | --- | --- |
| 26.9 | CC(C)(C)c1ccc(Nc2c(N[C@H]3CC[C@H](Oc4ccc(S(C)(=O)=O)cc4)CC3)c(=O)c2=O)cc1 | 68.5 | 95 |
| 40 | O=c1c(Nc2ccc(F)cc2)c(N[C@H]2CC[C@H](Oc3ccc(C(F)(F)F)cc3)CC2)c1=O | 59.3 | 87.8 |
| 47.5 | COC(=O)c1ccc(Nc2c(N[C@H]3CC[C@H](Oc4ccc(C(F)(F)F)cc4)CC3)c(=O)c2=O)cc1 | 91.6 | 104.7 |
| 23.9 | O=c1c(Nc2ccc(F)cc2)c(N[C@H]2CC[C@H](Oc3ccc([N+](=O)[O-])cc3)CC2)c1=O | 52.9 | 76.7 |
| 22.2 | COc1ccccc1Nc1c(N[C@H]2CC[C@H](Oc3ccc(S(C)(=O)=O)cc3)CC2)c(=O)c1=O | 34.4 | 962 |
| 53.3 | COc1ccc(Nc2c(N[C@H]3CC[C@H](Oc4ccc(S(C)(=O)=O)cc4)CC3)c(=O)c2=O)cc1 | 34.2 | 93.9 |
| 57.6 | COc1ccc(Nc2c(N[C@H]3CC[C@H](Oc4ccc([N+](=O)[O-])cc4)CC3)c(=O)c2=O)cc1 | 34.3 | 88.4 |
| 21.5 | COc1ccccc1Nc1c(N[C@H]2CC[C@H](Oc3ccc(C(F)(F)F)cc3)CC2)c(=O)c1=O | 30 | 77.8 |
| 41.5 | COc1cccc(Nc2c(N[C@H]3CC[C@H](Oc4ccc(C(F)(F)F)cc4)CC3)c(=O)c2=O)c1 | 69.9 | 97.4 |
| 51.1 | COc1cccc(Nc2c(N[C@H]3CC[C@H](Oc4ccc(C#N)cc4)CC3)c(=O)c2=O)c1 | 60.6 | 91.4 |
| 41.7 | COC(=O)c1ccc(Nc2c(N[C@H]3CC[C@H](Oc4ccc([N+](=O)[O-])cc4)CC3)c(=O)c2=O)cc1 | 26.7 | 91 |
| 80.1 | N#Cc1ccc(O[C@H]2CC[C@H](Nc3c(Nc4ccccc4)c(=O)c3=O)CC2)cc1 | 84.8 | 90.6 |
| 42.8 | CC(C)(C)c1ccc(Nc2c(N[C@H]3CC[C@H](Oc4ccc([N+](=O)[O-])cc4)CC3)c(=O)c2=O)cc1 | 50.4 |  |
| 24.3 | O=c1c(Nc2ccc(Cl)cc2)c(N[C@H]2CC[C@H](Oc3ccc([N+](=O)[O-])cc3)CC2)c1=O | 49.8 | 78.6 |
| 39.1 | O=c1c(Nc2ccc(Cl)cc2)c(N[C@H]2CC[C@H](Oc3ccc(C(F)(F)F)cc3)CC2)c1=O | 103.6 | 88.4 |
| 76.2 | CS(=O)(=O)c1ccc(O[C@H]2CC[C@H](Nc3c(Nc4ccccc4)c(=O)c3=O)CC2)cc1 | 76.1 | 76.2 |

| inhibition [2] [%] | SMILES | Activity [1] [%] | Activity (HepG2) [%] |
| --- | --- | --- | --- |
| 35.7 | COc1ccc(Nc2c(N[C@H]3CC[C@H](Oc4ccc(C#N)cc4)CC3)c(=O)c2=O)cc1 | 70.6 | 88.3 |
|  | O=C(Nc1ccc(Br)cc1)Nc1cccnc1 | 56.6 |  |
| 30.1 | CC(C)(C)c1ccc(Nc2c(N[C@H]3CC[C@H](Oc4ccc(C#N)cc4)CC3)c(=O)c2=O)cc1 | 61.5 | 87.4 |
| 40.5 | COC(=O)c1ccc(Nc2c(N[C@H]3CC[C@H](Oc4ccc(S(C)(=O)=O)cc4)CC3)c(=O)c2=O)cc1 | 22.3 | 90.1 |
| 51.1 | COc1cccc(Nc2c(N[C@H]3CC[C@H](Oc4ccc(S(C)(=O)=O)cc4)CC3)c(=O)c2=O)c1 | 62.5 | 100.4 |
| 107 | CS(=O)(=O)c1ccc(O[C@H]2CC[C@H](Nc3c(Nc4ccc(Cl)cc4)c(=O)c3=O)CC2)cc1 | 47.9 | 90.7 |
| 35.6 | COc1ccc(Nc2c(N[C@H]3CC[C@H](Oc4ccc(C(F)(F)F)cc4)CC3)c(=O)c2=O)cc1 | 28.7 | 94.8 |
| 32.6 | CC(C)(C)c1ccc(Nc2c(N[C@H]3CC[C@H](Oc4ccc(C(F)(F)F)cc4)CC3)c(=O)c2=O)cc1 | 68 | 95.9 |
| 59.6 | O=c1c(Nc2ccccc2)c(N[C@H]2CC[C@H](Oc3ccc([N+](=O)[O-])cc3)CC2)c1=O | 82.7 | 102.8 |
| 46.2 | N#Cc1ccc(O[C@H]2CC[C@H](Nc3c(Nc4ccc(F)cc4)c(=O)c3=O)CC2)cc1 | 87.4 | 77 |
| 18 | COc1cccc(Nc2c(N[C@H]3CC[C@H](Oc4ccc([N+](=O)[O-])cc4)CC3)c(=O)c2=O)c1 | 64.3 | 87.2 |
| 50.4 | COC(=O)c1ccc(Nc2c(N[C@H]3CC[C@H](Oc4ccc(C#N)cc4)CC3)c(=O)c2=O)cc1 | 65.9 | 99.1 |
| 87.1 | N#Cc1ccc(O[C@H]2CC[C@H](Nc3c(Nc4ccc(Cl)cc4)c(=O)c3=O)CC2)cc1 | 36.9 | 96.2 |
|  | CS(=O)(=O)c1ccc(O[C@H]2CC[C@H](Nc3c(Nc4ccc(F)cc4)c(=O)c3=O)CC2)cc1 | 24 | 91.3 |
| 70.8 | O=c1c(Nc2ccccc2)c(N[C@H]2CC[C@H](Oc3ccc(C(F)(F)F)cc3)CC2)c1=O | 77 | 93.2 |
